# Patent US20230062100A1, “SUBSTITUTED AMINOQUINOLONES AS DGKALPHA INHIBITORS FOR IMMUNE ACTIVATION” (Bayer Aktiengesellschaft, priority 2019, published 2023)
# Molecular target: DGKα (Homo sapiens, UniProt P23743)
# Assay: Human DGKα kinase activity inhibition assay (ADP-Glo)
# Format: biochemical
# Conditions: in vitro human DGKα kinase activity inhibition assay
# Description: Human DGKα inhibitory activity of compounds of the present invention was quantified employing the human DGKα kinase activity assay as described in the following paragraphs. In essence, the enzyme activity was measured by quantification of the adenosine-di-phosphate (ADP) generated as a co-product of the enzyme reaction via the “ADP-Glo™ Kinase Assay” kit from the company Promega. This detection system works as follows: In a first step the ATP not consumed in the kinase reaction is quantitatively converted to cAMP employing an adenylate cyclase (“ADP-Glo-reagent”), then the adenylate cyclase is stopped and the ADP generated in the kinase reaction converted to ATP, which subsequently generates in a luciferase-based reaction a glow-luminescence signal (“Kinase Detection Reagent”). C-terminally FLAG-tagged, recombinant full-length human DGKα (expressed in baculovirus infected insect cells, purified using anti-Flag pulldown and size exclusion chromatography as described below, DGKα_hu_1) was used as enzyme. As substrate for the kinase 1,2-dioleoyl-sn-glycerol, reconstituted in octyl-β-D-glucopyranoside micelles, was used. For the preparation of the micelles, 1 volume of a 16.1 mM solution of 1,2-dioleoyl-sn-glycerol (Avanti, Cat. #O8001-25G) in chloroform was slowly evaporated using a nitrogen stream. Subsequently, 22.55 volumes of a 510 mM solution of octyl-β-D-glucopyranoside (Sigma-Aldrich, Cat. #O8001-10G) in 50 mM MOPS buffer (pH 7.4) were added, and the mixture was sonicated in an ultrasonic bath for 20 s. Then 35 volumes of 50 mM MOPS buffer (pH 7.4) were added to yield a solution of 0.28 mM 1,2 dioleoyl-sn-glycerol and 200 mM octyl-β-D-glucopyranoside, which was aliquoted, flash-frozen in liquid nitrogen, and stored at −20° C. until use. For each experiment, a fresh aliquot was quickly thawed and diluted 24-fold with aqueous assay buffer (described below) containing 95.7 μM adenosine triphosphate (Promega) to yield a 1.67-fold concentrated substrate solution. For the assay 50 nl of a 100-fold concentrated solution of the test compound in dimethyl sulfoxide (DMSO, Sigma) was pipetted into either a white 1536-well or a white low-volume 384-well microtiter plate (both Greiner Bio-One, Frickenhausen, Germany). […] The concentration of DGK a was adjusted depending of the activity of the enzyme lot and was chosen appropriate to have the assay in the linear range, a typical concentration is about 0.1 nM. The reaction was stopped by the addition of 2.5 μl of “ADP-Glo-reagent” (1 to 1.5 diluted with water) and the resulting mixture was incubated at 22° C. for 1 h to convert the ATP not consumed in the kinase reaction completely to cAMP. […] The amount of emitted light was taken as a measure for the amount of ADP generated and thereby for the activity of the DGKα.
# Sequence of DGKα (P23743 with tags, fused parts or gaps): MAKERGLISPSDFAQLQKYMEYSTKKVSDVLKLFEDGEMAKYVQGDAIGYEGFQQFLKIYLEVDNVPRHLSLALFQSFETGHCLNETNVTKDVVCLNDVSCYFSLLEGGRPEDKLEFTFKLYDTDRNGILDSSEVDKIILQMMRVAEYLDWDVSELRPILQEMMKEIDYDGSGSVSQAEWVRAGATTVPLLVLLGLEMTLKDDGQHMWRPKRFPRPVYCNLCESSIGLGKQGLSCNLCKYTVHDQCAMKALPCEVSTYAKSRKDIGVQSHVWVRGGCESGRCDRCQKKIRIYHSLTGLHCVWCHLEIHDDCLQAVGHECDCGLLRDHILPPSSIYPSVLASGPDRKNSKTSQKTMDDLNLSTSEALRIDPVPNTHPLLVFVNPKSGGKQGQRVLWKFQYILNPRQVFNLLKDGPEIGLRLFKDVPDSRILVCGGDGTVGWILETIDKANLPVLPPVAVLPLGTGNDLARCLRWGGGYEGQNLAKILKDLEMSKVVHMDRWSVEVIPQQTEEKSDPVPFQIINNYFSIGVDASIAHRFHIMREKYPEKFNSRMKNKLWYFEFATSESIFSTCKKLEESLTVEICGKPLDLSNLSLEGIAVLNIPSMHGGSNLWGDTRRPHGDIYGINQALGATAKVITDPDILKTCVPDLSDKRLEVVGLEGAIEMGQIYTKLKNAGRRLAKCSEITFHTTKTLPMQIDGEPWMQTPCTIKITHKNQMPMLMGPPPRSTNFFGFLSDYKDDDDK
row,Compound,IC50 [nM]
1,"Cc1ccc(OC2CCN(c3c(C#N)c(=O)n(C)c4ccccc34)CC2)cc1 [Example 1, 1-methyl-4-[4-(4-methylphenoxy)piperidin-1-yl]-2-oxo-1,2-dihydroquinoline-3-carbonitrile]",4.2
2,"Cn1c(=O)c(C#N)c(N2CCC(Oc3ccc(OC(F)(F)F)cc3)CC2)c2ccccc21 [Example 2, 1-methyl-2-oxo-4-{4-[4-(trifluoromethoxy)phenoxy]piperidin-1-yl}-1,2-dihydroquinoline-3-carbonitrile]",3.9
3,"Cc1cccc(OC2CCN(c3c(C#N)c(=O)n(C)c4ccccc34)CC2)c1 [Example 3, 1-methyl-4-[4-(3-methylphenoxy)piperidin-1-yl]-2-oxo-1,2-dihydroquinoline-3-carbonitrile]",6.2
4,"COc1cccc(OC2CCN(c3c(C#N)c(=O)n(C)c4ccccc34)CC2)c1 [Example 4, 4-[4-(3-methoxyphenoxy)piperidin-1-yl]-1-methyl-2-oxo-1,2-dihydroquinoline-3-carbonitrile]",6.3
5,"Cn1c(=O)c(C#N)c(N2CCC(Oc3ccccc3)CC2)c2ccccc21 [Example 5, 1-methyl-2-oxo-4-(4-phenoxypiperidin-1-yl)-1,2-dihydroquinoline-3-carbonitrile]",7.7
6,"Cn1c(=O)c(C#N)c(N2CCC(Oc3ccc(F)cc3)CC2)c2ccccc21 [Example 6, 4-[4-(4-fluorophenoxy)piperidin-1-yl]-1-methyl-2-oxo-1,2-dihydroquinoline-3-carbonitrile]",8.4
7,"Cn1c(=O)c(C#N)c(N2CCC(Oc3cccc(F)c3)CC2)c2ccccc21 [Example 7, 4-[4-(3-fluorophenoxy)piperidin-1-yl]-1-methyl-2-oxo-1,2-dihydroquinoline-3-carbonitrile]",8.6
8,"Cn1c(=O)c(C#N)c(N2CCC(Oc3ccc(Br)cc3)CC2)c2ccccc21 [Example 8, 4-[4-(4-bromophenoxy)piperidin-1-yl]-1-methyl-2-oxo-1,2-dihydroquinoline-3-carbonitrile]",13
9,"Cn1c(=O)c(C#N)c(N2CCC(Oc3cccc(Cl)c3)CC2)c2ccccc21 [Example 9, 4-[4-(3-chlorophenoxy)piperidin-1-yl]-1-methyl-2-oxo-1,2-dihydroquinoline-3-carbonitrile]",9.1
10,"Cn1c(=O)c(C#N)c(N2CCC(Oc3ccc(Cl)cc3)CC2)c2ccccc21 [Example 10, 4-[4-(4-chlorophenoxy)piperidin-1-yl]-1-methyl-2-oxo-1,2-dihydroquinoline-3-carbonitrile]",10
11,"COc1ccccc1OC1CCN(c2c(C#N)c(=O)n(C)c3ccccc23)CC1 [Example 11, 4-[4-(2-methoxyphenoxy)piperidin-1-yl]-1-methyl-2-oxo-1,2-dihydroquinoline-3-carbonitrile]",11
12,"CCOC(=O)c1ccc(OC2CCN(c3c(C#N)c(=O)n(C)c4ccccc34)CC2)cc1 [Example 12, ethyl 4-{[1-(3-cyano-1-methyl-2-oxo-1,2-dihydroquinolin-4-yl)piperidin-4-yl]oxy}benzoate]",12
13,"Cn1c(=O)c(C#N)c(N2CCC(Oc3ccc(C(F)(F)F)cc3)CC2)c2ccccc21 [Example 13, 1-methyl-2-oxo-4-{4-[4-(trifluoromethyl)phenoxy]piperidin-1-yl}-1,2-dihydroquinoline-3-carbonitrile]",14
14,"Cc1ccccc1OC1CCN(c2c(C#N)c(=O)n(C)c3ccccc23)CC1 [Example 14, 1-methyl-4-[4-(2-methylphenoxy)piperidin-1-yl]-2-oxo-1,2-dihydroquinoline-3-carbonitrile]",14
15,"Cn1c(=O)c(C#N)c(N2CCC(Oc3cccc(C(F)(F)F)c3)CC2)c2ccccc21 [Example 15, 1-methyl-2-oxo-4-{4-[3-(trifluoromethyl)phenoxy]piperidin-1-yl}-1,2-dihydroquinoline-3-carbonitrile]",14
16,"Cn1c(=O)c(C#N)c(N2CCC(Oc3ccccc3Cl)CC2)c2ccccc21 [Example 16, 4-[4-(2-chlorophenoxy)piperidin-1-yl]-1-methyl-2-oxo-1,2-dihydroquinoline-3-carbonitrile]",33
17,"Cn1c(=O)c(C#N)c(N2CCC(Oc3ccc(-n4cncn4)cc3)CC2)c2ccccc21 [Example 17, 1-methyl-2-oxo-4-{4-[4-(1H-1,2,4-triazol-1-yl)phenoxy]piperidin-1-yl}-1,2-dihydroquinoline-3-carbonitrile]",45
18,"Cn1c(=O)c(C#N)c(N2CCC(Oc3ccc(N4CCCC4=O)cc3)CC2)c2ccccc21 [Example 18, 1-methyl-2-oxo-4-{4-[4-(2-oxopyrrolidin-1-yl)phenoxy]piperidin-1-yl}-1,2-dihydroquinoline-3-carbonitrile]",55
19,"Cn1c(=O)c(C#N)c(N2CCC(Oc3ccc(-n4ccnc4)cc3)CC2)c2ccccc21 [Example 19, 4-{4-[4-(1H-imidazol-1-yl)phenoxy]piperidin-1-yl}-1-methyl-2-oxo-1,2-dihydroquinoline-3-carbonitrile]",64

# More lines, now with the values ahead:
row,IC50 [nM],Compound
1,8.3,"Cn1c(=O)c(C#N)c(N2CCCC(Oc3ccc(OC(F)(F)F)cc3)CC2)c2ccccc21 (racemic) [Example 100, (rac)-1-methyl-2-oxo-4-{4-[4-(trifluoromethoxy)phenoxy]azepan-1-yl}-1,2-dihydroquinoline-3-carbonitrile]"
2,18,"Cn1c(=O)c(C#N)c(N2CCCC(Oc3ccc(Br)cc3)CC2)c2ccccc21 (racemic) [Example 103, (rac)-4-[4-(4-bromophenoxy)azepan-1-yl]-1-methyl-2-oxo-1,2-dihydroquinoline-3-carbonitrile]"
3,40,"Cn1c(=O)c(C#N)c(N2CCCC(Oc3ccc(N4CCC4)cc3)CC2)c2ccccc21 (racemic) [Example 104, (rac)-4-{4-[4-(azetidin-1-yl)phenoxy]azepan-1-yl}-1-methyl-2-oxo-1,2-dihydroquinoline-3-carbonitrile]"
4,33,"Cn1cc(-c2ccc(OC3CCCN(c4c(C#N)c(=O)n(C)c5ccccc45)CC3)cc2)cn1 (racemic) [Example 105, (rac)-1-methyl-4-{4-[4-(1-methyl-1H-pyrazol-4-yl)phenoxy]azepan-1-yl}-2-oxo-1,2-dihydroquinoline-3-carbonitrile]"
5,10,"CC(OC1CCN(c2c(C#N)c(=O)n(C)c3ccccc23)CC1)c1ccccc1 (racemic) [Example 112, (rac)-1-methyl-2-oxo-4-[4-(1-phenylethoxy)piperidin-1-yl]-1,2-dihydroquinoline-3-carbonitrile]"
6,7.4,"Cn1c(=O)c(C#N)c(N2CCCC(Oc3ccc(OC(F)(F)F)cc3)CC2)c2ccccc21 (single isomer, unassigned; enantiomer 1) [Example 101, 1-methyl-2-oxo-4-{4-[4-(trifluoromethoxy)phenoxy]azepan-1-yl}-1,2-dihydroquinoline-3-carbonitrile, enantiomer 1]"
7,18,"Cn1c(=O)c(C#N)c(N2CCCC(Oc3ccc(OC(F)(F)F)cc3)CC2)c2ccccc21 (single isomer, unassigned; enantiomer 2) [Example 102, 1-methyl-2-oxo-4-{4-[4-(trifluoromethoxy)phenoxy]azepan-1-yl}-1,2-dihydroquinoline-3-carbonitrile, enantiomer 2]"
8,81,"Cn1c(=O)c(C#N)c(N2CCC(Oc3ccc(N4CCOCC4)cc3)CC2)c2ccccc21 [Example 20, 1-methyl-4-{4-[4-(morpholin-4-yl)phenoxy]piperidin-1-yl}-2-oxo-1,2-dihydroquinoline-3-carbonitrile]"
9,119,"CN1CCCN(c2ccc(OC3CCN(c4c(C#N)c(=O)n(C)c5ccccc45)CC3)cc2)C1=O [Example 21, 1-methyl-4-{4-[4-(3-methyl-2-oxo-1,3-diazinan-1-yl)phenoxy]piperidin-1-yl}-2-oxo-1,2-dihydroquinoline-3-carbonitrile]"
10,129,"CN1CCN(c2ccc(OC3CCN(c4c(C#N)c(=O)n(C)c5ccccc45)CC3)cc2)C1=O [Example 22, 1-methyl-4-{4-[4-(3-methyl-2-oxoimidazolidin-1-yl)phenoxy]piperidin-1-yl}-2-oxo-1,2-dihydroquinoline-3-carbonitrile]"
11,181,"Cn1c(=O)c(C#N)c(N2CCC(Oc3ccc(N4CCCCC4=O)cc3)CC2)c2ccccc21 [Example 23, 1-methyl-2-oxo-4-{4-[4-(2-oxopiperidin-1-yl)phenoxy]piperidin-1-yl}-1,2-dihydroquinoline-3-carbonitrile]"
